# From patent US20260274892A1, “MACROCYCLIC BROAD SPECTRUM ANTIBIOTICS” (RQx Pharmaceuticals, Inc., priority 2017, published 2026)
# Test system: Escherichia coli ATCC 25922
# Experiment: Minimum inhibitory concentration (MIC), CLSI broth micro-dilution, E. coli
# Type: cell-based
# Conditions: Escherichia coli
# Summary of the method: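 Antibacterial potency is measured as MIC by the CLSI broth dilution method. Bacteria at OD600 0.0005 in Tween-80-supplemented cation-adjusted Mueller Hinton broth face ten twofold compound dilutions for 22 h at 35° C.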
# [1] = ATCC25922, 22 h, Table 6, cation adjusted Mueller Hinton Broth + 0.002% Tween-80, 35° C.
# [2] = ATCC25922, 22 h, Table 7, cation adjusted Mueller Hinton Broth + 0.002% Tween-80, 35° C.
# [3] = ATCC25922, Table 6, cation adjusted Mueller Hinton Broth + 0.002% Tween-80, 35° C., 22 hours
MIC [2] [µM],Structure (SMILES),other results
–,"Cc1nc(-c2ccc(C3CCCCCC3)cc2)nc(C)c1C(=O)N[C@@H](CCN)C(=O)N(C)[C@@H]1C(=O)N[C@@H](C)C(=O)N[C@H](C(=O)NCC#N)Cc2ccc(OCCN)c(c2)-c2cc1ccc2OCCN (racemic) [Compound 305, rac-(8S,11S,14S)-3,18-bis(2-aminoethoxy)-N-(cyanomethyl)-11-methyl-14-[methyl-[rac-(2S)-4-amino-2-[[2-(4-cycloheptylphenyl)-4,6-dimethyl-pyrimidine-5-carbonyl]amino]butanoyl]amino]-10,13-dioxo-9,12-diazatricyclo[13.3.1.12,6]icosa-1(18),2(20),3,5,15(19),16-hexaene-8-carboxamide]",MIC [1]: 0.13 µM
1,"Cc1nc(-c2ccc(C(C)(C)C)cc2)nc(C)c1C(=O)N[C@@H](CCN)C(=O)N(C)[C@@H]1C(=O)N[C@@H](C)C(=O)N[C@H](C(=O)NCC#N)Cc2ccc(OCCN)c(c2)-c2cc1cc(NCCN)c2O (racemic) [Compound 589, rac-(8S,11S,14S)-3-(2-aminoethoxy)-17-(2-aminoethylamino)-N-(cyanomethyl)-18-hydroxy-11-methyl-14-[methyl-[rac-(2S)-4-amino-2-[[2-(4-tert-butylphenyl)-4,6-dimethyl-pyrimidine-5-carbonyl]amino]butanoyl]amino]-10,13-dioxo-9,12-diazatricyclo[13.3.1.12,6]icosa-1(18),2(20),3,5,15(19),16-hexaene-8-carboxamide]",–
1,"Cc1nc(-c2ccc(OC3CCCCC3)cc2)nc(C)c1C(=O)N[C@@H](CCNS(N)(=O)=O)C(=O)N(C)[C@@H]1C(=O)N[C@@H](C)C(=O)N[C@H](C(=O)NCC#N)Cc2ccc(O)c(c2)-c2cc1ccc2OCCN (racemic) [Compound 615, rac-(8S,11S,14S)-18-(2-aminoethoxy)-N-(cyanomethyl)-3-hydroxy-11-methyl-14-[methyl-[rac-(2S)-2-[[2-[4-(cyclohexoxy)phenyl]-4,6-dimethyl-pyrimidine-5-carbonyl]amino]-4-(sulfamoylamino)butanoyl]amino]-10,13-dioxo-9,12-diazatricyclo[13.3.1.12,6]icosa-1(18),2(20),3,5,15(19),16-hexaene-8-carboxamide]",–
–,"Cc1nc(-c2ccc(OCCC(C)(C)C)cn2)nc(N)c1C(=O)N[C@@H](CCN)C(=O)N(C)[C@@H]1C(=O)N[C@@H](C)C(=O)N[C@H](C(=O)NCC#N)Cc2ccc(OCCN)c(c2)-c2cc1ccc2OCCN (racemic) [Compound 534, rac-(8S,11S,14S)-3,18-bis(2-aminoethoxy)-N-(cyanomethyl)-11-methyl-14-[methyl-[rac-(2S)-4-amino-2-[[4-amino-2-[5-(3,3-dimethylbutoxy)-2-pyridyl]-6-methyl-pyrimidine-5-carbonyl]amino]butanoyl]amino]-10,13-dioxo-9,12-diazatricyclo[13.3.1.12,6]icosa-1(18),2(20),3,5,15(19),16-hexaene-8-carboxamide]",MIC [1]: 0.5 µM
0.19,"Cc1nc(-c2ccc(OC3CCCCC3)cc2)nc(C)c1C(=O)N[C@@H](CNS(N)(=O)=O)C(=O)N(C)[C@@H]1C(=O)N[C@@H](C)C(=O)N[C@H](C(=O)NCC#N)Cc2ccc(OC[C@H](O)CN)c(c2)-c2cc1ccc2OC[C@H](O)CN (racemic) [Compound 578, rac-(8S,11S,14S)-N-(cyanomethyl)-11-methyl-14-[methyl-[rac-(2S)-2-[[2-[4-(cyclohexoxy)phenyl]-4,6-dimethyl-pyrimidine-5-carbonyl]amino]-3-(sulfamoylamino)propanoyl]amino]-10,13-dioxo-3,18-bis[rac-(2R)-3-amino-2-hydroxy-propoxy]-9,12-diazatricyclo[13.3.1.12,6]icosa-1(18),2(20),3,5,15(19),16-hexaene-8-carboxamide]",–
0.063,"Cc1nc(-c2ccc(OC3CCCCC3)cc2)nc(C)c1C(=O)N[C@@H](CCN)C(=O)N(C)[C@@H]1C(=O)N[C@@H](C)C(=O)N[C@H](C(=O)NCC#N)Cc2ccc(OC[C@H](O)CN)c(c2)-c2cc1ccc2OC[C@H](O)CN (racemic) [Compound 568, rac-(8S,11S,14S)-N-(cyanomethyl)-11-methyl-14-[methyl-[rac-(2S)-4-amino-2-[[2-[4-(cyclohexoxy)phenyl]-4,6-dimethyl-pyrimidine-5-carbonyl]amino]butanoyl]amino]-10,13-dioxo-3,18-bis[rac-(2R)-3-amino-2-hydroxy-propoxy]-9,12-diazatricyclo[13.3.1.12,6]icosa-1(18),2(20),3,5,15(19),16-hexaene-8-carboxamide]",–
–,"Cc1nc(-c2ccc(C3=CCCCC3)cc2)nc(C)c1C(=O)N[C@@H](CCN)C(=O)N(C)[C@@H]1C(=O)N[C@@H](C)C(=O)N[C@H](C(=O)NCC#N)Cc2ccc(OCCN)c(c2)-c2cc1ccc2OCCN (racemic) [Compound 303, rac-(8S,11S,14S)-3,18-bis(2-aminoethoxy)-N-(cyanomethyl)-11-methyl-14-[methyl-[rac-(2S)-4-amino-2-[[2-[4-(cyclohexen-1-yl)phenyl]-4,6-dimethyl-pyrimidine-5-carbonyl]amino]butanoyl]amino]-10,13-dioxo-9,12-diazatricyclo[13.3.1.12,6]icosa-1(18),2(20),3,5,15(19),16-hexaene-8-carboxamide]",MIC [1]: 0.13 µM
–,"CCCCCCCCc1ccc(C(=O)N[C@@H](CCCNC(N)=O)C(=O)N(C)[C@@H]2C(=O)N[C@@H](C)C(=O)N[C@H](C(=O)NCC#N)Cc3ccc(OCCN)c(c3)-c3cc2ccc3OCCN)c(C)c1 (racemic) [Compound 450, rac-(8S,11S,14S)-3,18-bis(2-aminoethoxy)-N-(cyanomethyl)-11-methyl-14-[methyl-[rac-(2S)-2-[(2-methyl-4-octyl-benzoyl)amino]-5-ureido-pentanoyl]amino]-10,13-dioxo-9,12-diazatricyclo[13.3.1.12,6]icosa-1(18),2(20),3,5,15(19),16-hexaene-8-carboxamide]",MIC [3]: 2.1 µM
0.5,"Cc1nc(-c2ccc(OC3CCCCC3)cc2)nc(C)c1C(=O)N[C@@H](CNS(N)(=O)=O)C(=O)N[C@@H]1C(=O)N[C@@H](C)C(=O)N[C@H](C(=O)NCC#N)Cc2ccc(OCCN)c(c2)-c2cc1ccc2OCCN (racemic) [Compound 573, rac-(8S,11S,14S)-3,18-bis(2-aminoethoxy)-N-(cyanomethyl)-11-methyl-10,13-dioxo-14-[[rac-(2S)-2-[[2-[4-(cyclohexoxy)phenyl]-4,6-dimethyl-pyrimidine-5-carbonyl]amino]-3-(sulfamoylamino)propanoyl]amino]-9,12-diazatricyclo[13.3.1.12,6]icosa-1(18),2(20),3,5,15(19),16-hexaene-8-carboxamide]",–
0.28,"Cc1nc(-c2ccc(C(C)(C)C)cc2)nc(C)c1C(=O)N[C@@H](CNS(N)(=O)=O)C(=O)N(C)[C@@H]1C(=O)N[C@@H](C)C(=O)N[C@H](C(=O)NCC#N)Cc2ccc(OCCN)c(c2)-c2cc1ccc2OCCN (racemic) [Compound 572, rac-(8S,11S,14S)-3,18-bis(2-aminoethoxy)-N-(cyanomethyl)-11-methyl-14-[methyl-[rac-(2S)-2-[[2-(4-tert-butylphenyl)-4,6-dimethyl-pyrimidine-5-carbonyl]amino]-3-(sulfamoylamino)propanoyl]amino]-10,13-dioxo-9,12-diazatricyclo[13.3.1.12,6]icosa-1(18),2(20),3,5,15(19),16-hexaene-8-carboxamide]",–
–,"C[C@@H]1NC(=O)[C@@H](N(C)C(=O)[C@H](CCN)NC(=O)N2CCC(c3ccc(C(C)(C)C)cc3)CC2)c2ccc(OCCN)c(c2)-c2cc(ccc2OCCN)C[C@@H](C(=O)NCC#N)NC1=O (racemic) [Compound 390, rac-(8S,11S,14S)-3,18-bis(2-aminoethoxy)-N-(cyanomethyl)-11-methyl-14-[methyl-[rac-(2S)-4-amino-2-[[4-(4-tert-butylphenyl)piperidine-1-carbonyl]amino]butanoyl]amino]-10,13-dioxo-9,12-diazatricyclo[13.3.1.12,6]icosa-1(18),2(20),3,5,15(19),16-hexaene-8-carboxamide]",MIC [3]: 8 µM
0.13,"Cc1nc(-c2ccc(OC3CCCCC3)cc2)cc(N)c1C(=O)N[C@@H](CCN)C(=O)N(C)[C@@H]1C(=O)N[C@@H](C)C(=O)N[C@H](C(=O)NCC#N)Cc2ccc(OCCCN)c(c2)-c2cc1ccc2OCCCN (racemic) [Compound 565, rac-(8S,11S,14S)-3,18-bis(3-aminopropoxy)-N-(cyanomethyl)-11-methyl-14-[methyl-[rac-(2S)-4-amino-2-[[4-amino-6-[4-(cyclohexoxy)phenyl]-2-methyl-pyridine-3-carbonyl]amino]butanoyl]amino]-10,13-dioxo-9,12-diazatricyclo[13.3.1.12,6]icosa-1(18),2(20),3,5,15(19),16-hexaene-8-carboxamide]",–
–,"Cc1nc(-c2ccc(C(C)(C)C)cc2F)nc(C)c1C(=O)N[C@@H](CCN)C(=O)N(C)[C@@H]1C(=O)N[C@@H](C)C(=O)N[C@H](C(=O)NCC#N)Cc2ccc(OCCN)c(c2)-c2cc1ccc2OCCN (racemic) [Compound 299, rac-(8S,11S,14S)-3,18-bis(2-aminoethoxy)-N-(cyanomethyl)-11-methyl-14-[methyl-[rac-(2S)-4-amino-2-[[2-(4-tert-butyl-2-fluoro-phenyl)-4,6-dimethyl-pyrimidine-5-carbonyl]amino]butanoyl]amino]-10,13-dioxo-9,12-diazatricyclo[13.3.1.12,6]icosa-1(18),2(20),3,5,15(19),16-hexaene-8-carboxamide]",MIC [3]: 0.38 µM
